Experimental data from patent US8633251B2, “Derivatives of aminoalkanols, method of obtaining of aminoalkanols and their use” (Uniwersytet Jagiellonski, priority 2008, dated 2014).

What was measured:
neurotoxicity (rotarod) = test: Neurotoxicity test (TOX), rotarod, mice; type: in vivo
Procedure: (§1) In order to define anticonvulsant activity, screening tests were performed, using animal models of seizures. […] Each substance (after dissolving in methylcellulose) was normally tested in doses 30, 100, and 300 mg/kg body weight (b.w.) (mice) or in 30 and 50 mg/kg b.w. (rats) in two possible routes of administration: intraperitoneal (i.p.) or oral (p.o.). Appropriate tests were performed 0.5 and 4 h after administration of the compound. […] (mice) the tests were also performed in doses 10 and 3 mg/kg b.w.
It is performed with use of rotarod test. The animal is placed on a plastic rod (1 inch in diameter), rotating 6 rpm. The rod is placed on a level discouraging the animal to jump off. […] Neurotoxicity is stated if the animal cannot stay on the rod for 1 min. in any of 3 trials. Normally the test is performed in dose 30 mg/kg b.w. in 4 mice (0.5 h) and in 2 mice (4 h), in the dose 100 mg/kg b.w. in 8 mice (0.5 h) and in 4 mice (4 h) and in the dose 300 mg/kg b.w. in 4 mice (0.5 h) and 2 mice (4 h).

[1] = test system: maximal electroshock seizures; test: Maximum Electroshock Seizure (MES) test, mice; type: in vivo; settings: mice, time 0.5 h
Procedure: as §1
Maximum Electroshock Seizure (MES) test is an electric test, verifying activity towards generalized tonic-clonic seizures (grand mal epilepsy). […] Its procedure consists in administration to an animal a mentioned dose, and after 0.5 or 4 h attaching corneal electrodes (after anesthetic eye-drops: 0.5% tetracaine hydrochloride in 0.9% NaCl) and turning on electric current (60 Hz, 0.2 s, 50 mA (mice) or 150 mA (rats)). […] Normally, in the dose 30 mg/kg b.w. the test is done in 1 mouse after 0.5 or 4 h, in the dose 100 mg/kg b.w.—in 3 mice, and in the dose 300 mg/kg b.w.—in 1 mouse.

[2] = mice, dose 300 mg/kg b.w., 0.5 h
[3] = mice, dose 100 mg/kg b.w., time 0.5 h
[4] = mice, dose 300 mg/kg b.w., time 0.5 h

CCC(NC(=O)COc1c(C)cccc1Cl)C(N)=O (racemic) [Compound 78, D,L-2N-[(2-chlor-6-methylphenoxy)acetyl]aminobutyramide]
TOX, No. of animals exhibiting motor impairment/no. of used animals (neurotoxicity (rotarod); [2]): 1/4

Cc1cccc(C)c1OCCN[C@@H]1CCCC[C@H]1O (relative stereo) [Compound 18, D,L-trans-2N-[(2,6-dimethylphenoxy)ethyl]amino-1-cyclohexanol]
MES, No. of protected animals/No. of used animals ([1]; dose 100 mg/kg b.w.): 3/3 | TOX, No. of animals exhibiting motor impairment/no. of used animals (neurotoxicity (rotarod); [3]): 7/8 | TOX, No. of animals exhibiting motor impairment/no. of used animals (neurotoxicity (rotarod); [4]): 4/4

Cc1cccc(Cl)c1OCCN[C@@H]1CCCC[C@H]1O (relative stereo) [Compound 30, D,L-trans-2N-[(2-chlor-6-methylphenoxy)ethyl]amino-1-cyclohexanol]
MES, No. of protected animals/No. of used animals ([1]; dose 30 mg/kg b.w.): 1/1 | MES, No. of protected animals/No. of used animals ([1]; dose 100 mg/kg b.w.): 1/1 | TOX, No. of animals exhibiting motor impairment/no. of used animals (neurotoxicity (rotarod); [3]): 8/8 | TOX, No. of animals exhibiting motor impairment/no. of used animals (neurotoxicity (rotarod); [4]): 4/4

Cc1cc(C)c(OCCN[C@@H]2CCCC[C@H]2O)c(C)c1 (relative stereo) [Compound 44, D,L-trans-2N-[(2,4,6-trimethylphenoxy)ethyl]amino-1-cyclohexanol]
MES, No. of protected animals/No. of used animals ([1]; dose 10 mg/kg b.w.): 1/4 | MES, No. of protected animals/No. of used animals ([1]; dose 30 mg/kg b.w.): 1/1 | TOX, No. of animals exhibiting motor impairment/no. of used animals (neurotoxicity (rotarod); mice, dose 10 mg/kg b.w., time 0.5 h): 1/4 | TOX, No. of animals exhibiting motor impairment/no. of used animals (neurotoxicity (rotarod); [3]): 8/8

CCC(CO)NCCOc1cccc(C)c1C (centres unmarked) [Compound 2, R,S-2N-[(2,3-dimethylphenoxy)ethyl]amino-1-butanol]
MES, No. of protected animals/No. of used animals ([1]; dose 100 mg/kg b.w.): 3/3 | TOX, No. of animals exhibiting motor impairment/no. of used animals (neurotoxicity (rotarod); mouse, in vivo, 100 mg/kg): 8/8 | TOX, No. of animals exhibiting motor impairment/no. of used animals (neurotoxicity (rotarod); mouse, in vivo, 300 mg/kg): 4/4

Cc1cccc(OCCNC(C)(C)CO)c1C [Compound 3, 2N-[(2,3-dimethylphenoxy)ethyl]amino-2-methyl-1-propanol]
responders at 100 mg/kg ([1]; Mus musculus, dose 100 mg/kg b.w., read-out: MES, No. of protected animals/No. of used animals (converted)): 66.7% | TOX, No. of animals exhibiting motor impairment/no. of used animals (neurotoxicity (rotarod); [3]): 7/8 | TOX, No. of animals exhibiting motor impairment/no. of used animals (neurotoxicity (rotarod); [4]): 4/4

Cc1ccc(C)c(OCCNCC(C)O)c1 (centres unmarked) [Compound 5, R,S-1N-[(2,5-dimethylphenoxy)ethyl]amino-2-propanol]
MES, No. of protected animals/No. of used animals ([1]; dose 100 mg/kg b.w.): 3/3 | TOX, No. of animals exhibiting motor impairment/no. of used animals (neurotoxicity (rotarod); mouse, in vivo, 300 mg/kg): 4/4

Cc1ccc(C)c(OCCNCC(O)c2ccccc2)c1 (centres unmarked) [Compound 9, R,S-2N-[(2,5-dimethylphenoxy)ethyl]amino-1-phenylethanol]
TOX, No. of animals exhibiting motor impairment/no. of used animals (neurotoxicity (rotarod); [3]): 7/8 | TOX, No. of animals exhibiting motor impairment/no. of used animals (neurotoxicity (rotarod); [4]): 3/4 | TOX, No. of animals exhibiting motor impairment/no. of used animals (neurotoxicity (rotarod); mice, dose 300 mg/kg b.w., time 4 h): 1/2

Cc1cc(Cl)ccc1OCCNCC(O)c1ccccc1 (centres unmarked) [Compound 37, R,S-2N-[(4-chlor-2-methylphenoxy)ethyl]amino-1-phenylethanol]
TOX, No. of animals exhibiting motor impairment/no. of used animals (neurotoxicity (rotarod); [4]): 1/4

Cc1cccc(Cl)c1OCC(=O)NCCCC(=O)O [Compound 79, 4N-[(2-chlor-6-methylphenoxy)acetyl]aminobutyric acid]
TOX, No. of animals exhibiting motor impairment/no. of used animals (neurotoxicity (rotarod); [2]): 1/4

Cc1cc(Cl)ccc1OCC(=O)NCC(O)c1ccccc1 (centres unmarked) [Compound 82, R,S-2N-[(4-chlor-2-methylphenoxy)acetyl]amino-1-phenylethanol]
TOX, No. of animals exhibiting motor impairment/no. of used animals (neurotoxicity (rotarod); mice, dose 100 mg/kg b.w., 0.5 h): 2/8 | TOX, No. of animals exhibiting motor impairment/no. of used animals (neurotoxicity (rotarod); [2]): 4/4 | TOX, No. of animals exhibiting motor impairment/no. of used animals (neurotoxicity (rotarod); mice, dose 300 mg/kg b.w., 4 h): 1/2

Cc1cc(C)c(OCC(=O)NCC(O)c2ccccc2)c(C)c1 (centres unmarked) [Compound 83, R,S-2N-[(2,4,6-trimethylphenoxy)acetyl]amino-1-phenylethanol]
TOX, No. of animals exhibiting motor impairment/no. of used animals (neurotoxicity (rotarod); [2]): 4/4
